Molecular target: T1, SsAT (acetyltransferase, accession No. ZP_05014886) (Streptomyces sviceus, UniProt B5HKU0)
T1 construct: gene SSEG_00025; recombinant N-terminally His-tagged SsAT, freshly purified
Assay: ITC, pH […]°C, one-site model, n close to […]
Format: binding

T1 sequence (B5HKU0 entry or part of it): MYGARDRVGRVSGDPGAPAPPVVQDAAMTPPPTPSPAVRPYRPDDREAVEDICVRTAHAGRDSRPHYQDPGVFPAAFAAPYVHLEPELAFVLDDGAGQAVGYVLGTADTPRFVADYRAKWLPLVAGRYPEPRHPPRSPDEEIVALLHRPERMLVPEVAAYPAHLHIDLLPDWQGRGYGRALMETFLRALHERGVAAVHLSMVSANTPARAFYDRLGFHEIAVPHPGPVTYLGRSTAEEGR

Kd: 20 µM
SMILES: CC(=O)SCCNC(=O)CCNC(=O)[C@H](O)C(C)(C)COP(=O)(O)OP(=O)(O)OC[C@H]1O[C@@H](n2cnc3c(N)ncnc32)[C@H](O)[C@@H]1OP(=O)(O)O [acetyl coenzyme A]
